Assay results taken from patent US4670469A, “Hydroxamic acid and pharmaceutical preparations containing the same” (VEB Arzneimittelwerk Dresden, priority 1983, dated 1987).

Legend:
[1] = system: aorta endothelial cells of calves; assay: Formation of lipoxygenase products of arachidonic acid in cultivated aorta endothelial cells; assay type: cell-based; details: 0.1 mM
Method: (§1) The inhibition of thrombocyte aggregation is likewise ascribed to the inhibition of lipoxygenase in the cells. It has thus been shown that the arachidonate-lipoxygenase activity of a microsome-free lysate of human thrombocyte concentrates is inhibited to the extent of 100% by means of 0.25 mM salicylhydroxamic acid. Moreover, it has been shown that also a series of further lipoxygenases are inhibited by means of the here described hydroxamic acids. The lipoxygenase from soybeans reacts the most insensitive, i.e. it is inhibited by means of 1 mM salicylhydroxamic acid at pH 7.4 to an extent of 60% and by means of 0.4 mM 2-hydroxy-1-napthylhydroxamic acid to an extent of 54%. In contrast, for the lipoxygenase from peas which come closer in their characteristics to human lipoxygenase, the following I50 -values are provided: salicyl hydroxamic acid, 5 μM, 2-hydroxy-1-napthylhydroxamic acid, 2 μM, 2(2'-napthoxy)-acethydroxamic acid, 2 μM. Moreover it has been shown that the formation lipoxygenase products of arachidonic acid in in vitro cultivated aorta endothelial cells of calves is hindered through 0.1 mM 2-hydroxy-1-napthylhydroxamic acids.

lipoxygenase from peas = assay: Inhibition of lipoxygenase from peas; assay type: biochemical; details: read-out: I50
Method: as §1

[2] = target: T1, lipoxygenase from soybeans (Glycine max, UniProt P08170); assay: Inhibition of lipoxygenase from soybeans; assay type: biochemical; details: 0.4 mM; read-out: inhibition of soybean lipoxygenase
T1 construct: host or cells: soybeans
T1 sequence (P08170 1-839): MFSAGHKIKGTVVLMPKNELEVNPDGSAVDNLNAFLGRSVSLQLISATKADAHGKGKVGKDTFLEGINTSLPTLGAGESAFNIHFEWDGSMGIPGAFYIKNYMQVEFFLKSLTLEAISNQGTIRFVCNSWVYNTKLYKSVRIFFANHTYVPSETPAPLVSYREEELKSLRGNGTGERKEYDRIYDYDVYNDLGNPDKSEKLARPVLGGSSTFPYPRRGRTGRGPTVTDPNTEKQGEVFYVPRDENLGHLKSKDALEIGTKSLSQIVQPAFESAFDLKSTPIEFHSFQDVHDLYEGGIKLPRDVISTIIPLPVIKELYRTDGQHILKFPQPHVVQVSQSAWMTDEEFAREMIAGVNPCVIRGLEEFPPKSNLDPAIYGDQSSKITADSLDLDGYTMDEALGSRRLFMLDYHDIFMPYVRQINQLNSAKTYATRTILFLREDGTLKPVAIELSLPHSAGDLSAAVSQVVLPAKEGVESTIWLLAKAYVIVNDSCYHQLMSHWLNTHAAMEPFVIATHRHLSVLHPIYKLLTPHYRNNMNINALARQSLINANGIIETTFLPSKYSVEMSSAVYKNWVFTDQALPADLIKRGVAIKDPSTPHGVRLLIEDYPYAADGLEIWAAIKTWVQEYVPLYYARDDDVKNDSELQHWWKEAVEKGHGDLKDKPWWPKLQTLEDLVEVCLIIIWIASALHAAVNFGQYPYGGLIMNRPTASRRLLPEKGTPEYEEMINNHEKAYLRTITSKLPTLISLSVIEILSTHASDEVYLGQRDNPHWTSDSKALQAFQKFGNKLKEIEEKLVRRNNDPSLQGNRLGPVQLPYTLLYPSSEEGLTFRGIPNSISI
Method: as §1

[3] = target: T2, lipoxygenase from rabbit reticulocytes (Oryctolagus cuniculus, UniProt P12530); assay: Inhibition of the activity of lipoxygenase from rabbit reticulocytes (oxygen consumption, Clark electrode); assay type: biochemical; details: 25° C., pH 7.4, 0.53 mM linoleic acid, 15 min pre-incubation
T2 construct: The lipoxygenase from rabbit reticulocytes is obtained in electrophoretically and immunologically pure form; from tissue; host or cells: rabbit reticulocytes
T2 sequence (P12530 1-663): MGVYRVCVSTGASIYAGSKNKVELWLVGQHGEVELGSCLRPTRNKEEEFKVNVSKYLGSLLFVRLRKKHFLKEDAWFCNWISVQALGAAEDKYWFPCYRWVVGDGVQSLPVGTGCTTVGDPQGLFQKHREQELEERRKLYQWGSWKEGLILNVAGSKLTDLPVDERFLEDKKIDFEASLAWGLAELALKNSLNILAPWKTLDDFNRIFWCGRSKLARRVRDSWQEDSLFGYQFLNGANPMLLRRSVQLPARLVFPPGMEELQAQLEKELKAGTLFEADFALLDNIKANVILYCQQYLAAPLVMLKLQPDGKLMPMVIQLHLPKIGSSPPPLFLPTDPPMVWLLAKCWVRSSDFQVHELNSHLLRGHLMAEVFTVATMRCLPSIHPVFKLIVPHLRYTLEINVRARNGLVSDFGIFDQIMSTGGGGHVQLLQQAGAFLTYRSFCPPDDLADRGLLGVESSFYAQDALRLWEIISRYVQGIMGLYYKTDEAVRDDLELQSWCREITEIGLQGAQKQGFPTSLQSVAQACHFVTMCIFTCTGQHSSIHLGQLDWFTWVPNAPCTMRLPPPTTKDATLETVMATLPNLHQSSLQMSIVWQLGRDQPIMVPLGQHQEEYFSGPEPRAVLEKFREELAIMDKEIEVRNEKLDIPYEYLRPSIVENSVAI
Method: The lipoxygenase from rabbit reticulocytes was obtained in electrophoretically and immunologically pure form according to a technique known from the literature (S. M. Rapoport et al. Methods in Enzymology 71, 430 (1981)). The determination of lipoxygenase activity follows at 25° C. through the polarographic measurement of the oxygen consumption by means of Clark Electrode in a standardized system.
Through variation of the substance concentrations, the titration curves of the inhibition and therefrom the inhibition concentrations (I-value) of the compounds can be determined.
The testing of compounds for antiasthmatic, antiallergenic, inflammation-inhibiting and antithrombotic activity on the basis on the inhibition of the lipoxygenase reaction of the arachidonic acid cascade follows in a molecular/pharmacological test system. […] The lipoxygenase from rabbit reticulocytes is obtained in electrophoretically and immunologically pure form according to the techniques described in the literature (supra). The determination of the lipoxygenase activity follows at 25° C. through the polorographic measurement of oxygen consumption by means of a Clark-electrode in the following system: 0.1M potassiumphosphate, pH 7.4, with 0.2 percent sodium cholate and 0.53 mM linoleic acid. The enzyme concentration in the measurement preparation came to 25 nM. The compounds to be tested are dissolved in methylglycol (freshly distilled in a vacuum) and pre-incubated for 15 minutes at the measuring temperature in the absence of sodium cholate and linoleic acid. […] The enzyme reaction is started by the addition of sodium cholate and linoleic acid.

thrombocyte aggregation = assay: Arachidonic acid-induced thrombocyte aggregation in thrombocyte-rich plasma; assay type: cell-based, humans; details: Homo sapiens; 0.8 mM arachidonic acid; concentration giving total restraint of aggregation
Excerpt: Since with the new medicines the restraints of lipoxygenase has been identified as a molecular type of attack, also their influence on the thrombocyte-aggregation has been tested. The essential role of the lipoxygenase pathway for irreversibility of the thrombocyte aggregation is now known. (C. E. Dutilh et al. Prostaglandins and Medicine 6, 111 (1981)). The key role is attributed to the irreversibility of the thrombocyte aggregation in the pathogenesis of thrombotic illnesses. […] In the experiments, the thrombocyte aggregation was triggered either by means of arachidonic acid or by means of platelet activation factor (PAF-Acether).
The testing of the compounds for antithrombotic and thrombolytic activity follows in authentic cell systems of humans in vitro. Thrombocyte-rich plasma from the blood of healthy donors is obtained by centrifugation at 1,000×g. The measurement of the thrombocyte aggregation follows by means of an aggregometer based upon diffuse light scattering or light absorption of the produced cell aggregate. The thrombocyte-rich plasma is pre-incubated at 37° C. for 3 minutes with the active substance or substances; thereafter the thrombocyte aggregation is triggered through the addition of either 0.8 mM arachidonic acid or 1 μM platelet activation factor (PAF-acether). The preparations are then stirred with a velocity of 800 rpm. Indeed according to the employed active substance concentration there occurs either a strong delay or a complete inhibition of the thrombocyte aggregation.

- IC50 (lipoxygenase from peas): 2000 nM
- inhibition at 400 µM [2]: 54%
- IC50 ([3]; read-out: I50): 1600 nM
- IC84 ([3]; read-out: I84): 5.2 µM
Compound: O=C(NO)c1c(O)ccc2ccccc12 [2-hydroxy-1-naphthylhydroxanic acid, 2-hydroxy-1-naphthylhydroxamic acid]
- formation of lipoxygenase products of arachidonic acid [1]: hindered
- IC100 (thrombocyte aggregation): 7 µM
